≈ marks a conversion by molar mass, not a printed value. Calls of active or inactive are those of the source. No cut-off for these calls is given here.
Experiments:
Staphylococcus aureus [1] = experiment: Antibacterial activity against methicillin-susceptible Staphylococcus aureus incubated for 16 to 24 hrs by CLSI based broth microdilution method; type: functional; details: time 16-24 hrs
Staphylococcus aureus [2] = experiment: Antibacterial activity against vancomycin-intermediate Staphylococcus aureus incubated for 16 to 24 hrs by CLSI based broth microdilution method; type: functional; details: time 16-24 hrs
Enterococcus faecium [3] = experiment: Antibacterial activity against vancomycin-resistant Enterococcus faecium harboring VanA phenotype incubated for 16 to 24 hrs by CLSI based broth microdilution method; type: functional; details: time 16-24 hrs
Enterococcus faecium [4] = experiment: Antibacterial activity against vancomycin-resistant Enterococcus faecium harboring VanM phenotype incubated for 16 to 24 hrs by CLSI based broth microdilution method; type: functional; details: time 16-24 hrs
Enterococcus faecium [5] = experiment: Antibacterial activity against vancomycin-resistant Enterococcus faecium harboring VanB phenotype incubated for 16 to 24 hrs by CLSI based broth microdilution method; type: functional; details: time 16-24 hrs
Escherichia coli = experiment: Antibacterial activity against Escherichia coli AB1157 incubated for 16 to 24 hrs by CLSI based broth microdilution method; type: functional; details: time 16-24 hrs
Acinetobacter baumannii = experiment: Antibacterial activity against Carbapenem-resistant Acinetobacter baumannii clinical isolate incubated for 16 to 24 hrs by CLSI based broth microdilution method; type: functional; details: time 16-24 hrs
Klebsiella pneumoniae = experiment: Antibacterial activity against Klebsiella pneumoniae clinical isolate incubated for 16 to 24 hrs by CLSI based broth microdilution method; type: functional; details: time 16-24 hrs
Pseudomonas aeruginosa = experiment: Antibacterial activity against Pseudomonas aeruginosa PAO1 incubated for 16 to 24 hrs by CLSI based broth microdilution method; type: functional; details: time 16-24 hrs
HEK-293T [6] = experiment: Cytotoxicity against HEK293T cells upto […] incubated for 72 hrs by MTT assay; type: toxicity, cell-based; details: human
HEK-293T [7] = experiment: Cytotoxicity against HEK293T cells at 100 ug/ml incubated for 72 hrs by MTT assay; type: toxicity, cell-based; details: human, dose 100 µg/ml
Staphylococcus aureus [8] = experiment: Induction of drug resistance in vancomycin-sensitive Staphylococcus aureus MRSA252 assessed as fold increase in MIC measured after 16 days of serial passages by broth microdilution method; type: functional; details: time 16 day
[9] = Half life in CD-1 mouse at 10 mg/kg, iv measured for 24 hrs by UPLC analysis; type: ADME, organism-based; details: in vivo
[10] = AUClast in CD-1 mouse at 10 mg/kg, iv measured for 24 hrs by UPLC analysis; type: ADME, organism-based; details: in vivo
[11] = AUC (infinity) in CD-1 mouse at 10 mg/kg, iv measured for 24 hrs by UPLC analysis; type: ADME, organism-based; details: in vivo
[12] = Clearance in CD-1 mouse at 10 mg/kg, iv measured for 24 hrs by UPLC analysis; type: ADME, organism-based; details: in vivo
[13] = MRT (infinity) in CD-1 mouse at 10 mg/kg, iv measured for 24 hrs by UPLC analysis; type: ADME, organism-based; details: in vivo
[14] = Volume of distribution at steady state in CD-1 mouse at 10 mg/kg, iv measured for 24 hrs by UPLC analysis; type: ADME, organism-based; details: in vivo, read-out: Vdss
[15] = Toxicity in BALB/c mouse infected with methicillin-resistant Staphylococcus aureus MRSA252 assessed as survival rate at 10 mg/kg, iv for 7 days; type: organism-based; details: in vivo, 168 h, time 7 day
[16] = Toxicity in BALB/c mouse infected with methicillin-resistant Staphylococcus aureus MRSA252 assessed as survival rate at 20 mg/kg, iv for 7 days; type: organism-based; details: in vivo, 168 h, time 7 day
Staphylococcus aureus [17] = experiment: Antibacterial activity against Staphylococcus aureus Mu50 assessed as fold decrease in MIC at 1:1 ratio of compound and Ac2KAA at […] incubated for 16 to 24 hrs by absorbance based assay relative to control; type: functional; details: dose 128 µg/ml; time 16-24 hrs
Staphylococcus aureus [18] = experiment: Antibacterial activity against Staphylococcus aureus Mu50 at 1:1 ratio of compound and Ac2KAA at […] incubated for 16 to 24 hrs by absorbance based assay; type: functional
Staphylococcus aureus [19] = experiment: Induction of cytoplasmic membrane permeabilization in methicillin-resistant Staphylococcus aureus MRSA252 at […] measured for 40 mins by PI/NPN staining based analysis; type: functional, organism-based; details: dose 128.0 µg/ml
Enterococcus faecalis [20] = experiment: Induction of inner membrane permeabilization in Enterococcus faecalis ATCC29212 at […] measured for 20 mins by DiSC3(5) staining based analysis; type: functional, organism-based; details: dose 128.0 µg/ml
Staphylococcus aureus [21] = experiment: Post-antibiotic effect in Staphylococcus aureus MRSA252 assessed as change in bacterial titer at 10 times measured after 2 hrs; type: functional
Staphylococcus aureus [22] = experiment: Post-antibiotic effect in Staphylococcus aureus MRSA252 assessed as change in bacterial titer at 20 times measured after 2 hrs; type: functional
Staphylococcus aureus [23] = experiment: Post-antibiotic effect in Staphylococcus aureus MRSA252 assessed as time of effect at 10 to 20 times; type: functional
Staphylococcus hominis = experiment: Antibacterial activity against methicillin-resistant Staphylococcus hominis clinical isolate incubated for 16 to 24 hrs by CLSI based broth microdilution method; type: functional; details: time 16-24 hrs
[24] = test system: Staphylococcus haemolyticus; experiment: Antibacterial activity against methicillin-resistant Staphylococcus haemolyticus clinical isolate incubated for 16 to 24 hrs by CLSI based broth microdilution method; type: functional; details: time 16-24 hrs
Staphylococcus aureus [25] = experiment: Antibacterial activity against methicillin-resistant Staphylococcus aureus clinical isolate incubated for 16 to 24 hrs by CLSI based broth microdilution method; type: functional; details: time 16-24 hrs
Enterococcus faecalis [26] = experiment: Antibacterial activity against Enterococcus faecalis clinical isolate incubated for 16 to 24 hrs by CLSI based broth microdilution method; type: functional; details: time 16-24 hrs
Enterococcus faecium [27] = experiment: Antibacterial activity against vancomycin-resistant Enterococcus faecium harboring VanA phenotype clinical isolate incubated for 16 to 24 hrs by CLSI based broth microdilution method; type: functional; details: time 16-24 hrs
[28] = test system: Staphylococcus epidermidis; experiment: Antibacterial activity against methicillin-resistant Staphylococcus epidermidis clinical isolate incubated for 16 to 24 hrs by CLSI based broth microdilution method; type: functional; details: time 16-24 hrs
Enterococcus faecium [29] = experiment: Antibacterial activity against Enterococcus faecium clinical isolate incubated for 16 to 24 hrs by CLSI based broth microdilution method; type: functional; details: time 16-24 hrs

CN[C@H](CC(C)C)C(=O)N[C@H]1C(=O)N[C@@H](CC(N)=O)C(=O)N[C@H]2C(=O)N[C@H]3C(=O)N[C@H](C(=O)N[C@H](C(=O)NCCCCCCCCN)c4cc(O)cc(O)c4-c4cc3ccc4O)[C@H](O)c3ccc(c(Cl)c3)Oc3cc2cc(c3O[C@@H]2O[C@H](CO)[C@@H](O)[C@H](O)[C@H]2O[C@H]2C[C@](C)(N)[C@H](O)[C@H](C)O2)Oc2ccc(cc2Cl)[C@H]1O
MIC (Staphylococcus aureus [1]): 1 µg/mL (≈ 0.635 µM)
MIC (Staphylococcus aureus [2]): 2 µg/mL (≈ 1.27 µM)
MIC (Enterococcus faecium [3]): 64 µg/mL (≈ 40.6 µM)
MIC (Enterococcus faecium [4]): 64 µg/mL (≈ 40.6 µM)
MIC (Enterococcus faecium [5]): 16 µg/mL (≈ 10.2 µM)
MIC (Escherichia coli): 64 µg/mL (≈ 40.6 µM)
MIC (Acinetobacter baumannii): 128 µg/mL (≈ 81.2 µM)
MIC (Klebsiella pneumoniae): > 128 µg/mL
MIC (Pseudomonas aeruginosa): 128 µg/mL (≈ 81.2 µM)
Activity (HEK-293T [6]): Non-Toxic
Activity (HEK-293T [7]): Non-Toxic

CN[C@H](CC(C)C)C(=O)N[C@H]1C(=O)N[C@@H](CC(N)=O)C(=O)N[C@H]2C(=O)N[C@H]3C(=O)N[C@H](C(=O)N[C@H](C(=O)NCCCCCCCCNC(=N)N)c4cc(O)cc(O)c4-c4cc3ccc4O)[C@H](O)c3ccc(c(Cl)c3)Oc3cc2cc(c3O[C@@H]2O[C@H](CO)[C@@H](O)[C@H](O)[C@H]2O[C@H]2C[C@](C)(N)[C@H](O)[C@H](C)O2)Oc2ccc(cc2Cl)[C@H]1O
MIC (Staphylococcus aureus [1]): 0.25 µg/mL (≈ 0.155 µM)
MIC (Staphylococcus aureus [2]): 1 µg/mL (≈ 0.618 µM)
MIC (Enterococcus faecium [3]): 8 µg/mL (≈ 4.95 µM)
MIC (Enterococcus faecium [4]): 16 µg/mL (≈ 9.89 µM)
MIC (Enterococcus faecium [5]): 8 µg/mL (≈ 4.95 µM)
MIC (Escherichia coli): 16 µg/mL (≈ 9.89 µM)
MIC (Acinetobacter baumannii): 32 µg/mL (≈ 19.8 µM)
MIC (Klebsiella pneumoniae): 128 µg/mL (≈ 79.1 µM)
MIC (Pseudomonas aeruginosa): 128 µg/mL (≈ 79.1 µM)
Activity (HEK-293T [6]): Non-Toxic
Activity (HEK-293T [7]): Non-Toxic

CCCCCCCCCC(=O)N[C@@H](Cc1c[nH]c2ccccc12)C(=O)N[C@@H](CC(N)=O)C(=O)N[C@@H](CC(=O)O)C(=O)N[C@@H]1C(=O)NCC(=O)N[C@@H](CCCN)C(=O)N[C@@H](CC(=O)O)C(=O)N[C@H](C)C(=O)N[C@@H](CC(=O)O)C(=O)NCC(=O)N[C@H](CO)C(=O)N[C@@H]([C@@H](C)CC(=O)O)C(=O)N[C@@H](CC(=O)c2ccccc2N)C(=O)O[C@@H]1C
MIC (Staphylococcus aureus [1]): 2 µg/mL (≈ 1.23 µM)
MIC (Staphylococcus aureus [2]): 4 µg/mL (≈ 2.47 µM)
MIC (Enterococcus faecium [3]): 8 µg/mL (≈ 4.94 µM)
MIC (Enterococcus faecium [4]): 8 µg/mL (≈ 4.94 µM)
MIC (Enterococcus faecium [5]): 8 µg/mL (≈ 4.94 µM)
MIC (Escherichia coli): 128 µg/mL (≈ 79 µM)
MIC (Acinetobacter baumannii): 128 µg/mL (≈ 79 µM)
MIC (Klebsiella pneumoniae): > 128 µg/mL
MIC (Pseudomonas aeruginosa): > 128 µg/mL
fold change (FC) (Staphylococcus aureus [8]): 8

CC(C)C[C@@H](N)C(=O)N[C@H]1C(=O)N[C@@H](CC(N)=O)C(=O)N[C@H]2C(=O)N[C@H]3C(=O)N[C@H](C(=O)N[C@H](C(=O)O)c4cc(O)cc(O)c4-c4cc3ccc4O)[C@H](O)c3ccc(c(Cl)c3)Oc3cc2cc(c3O[C@@H]2O[C@H](CO)[C@@H](O)[C@H](O)[C@H]2O[C@H]2C[C@](C)(N)[C@H](O)[C@H](C)O2)Oc2ccc(cc2Cl)[C@H]1O
MIC (Staphylococcus aureus [1]): 0.5 µg/mL (≈ 0.348 µM)
MIC (Staphylococcus aureus [2]): 2 µg/mL (≈ 1.39 µM)
MIC (Enterococcus faecium [3]): > 128 µg/mL
MIC (Enterococcus faecium [4]): 128 µg/mL (≈ 89.2 µM)
MIC (Enterococcus faecium [5]): 128 µg/mL (≈ 89.2 µM)
MIC (Escherichia coli): > 128 µg/mL
MIC (Acinetobacter baumannii): > 128 µg/mL
MIC (Klebsiella pneumoniae): > 128 µg/mL
MIC (Pseudomonas aeruginosa): > 128 µg/mL
half-life [9]: 31.8 min
AUC(0-t) at 24 h [10]: 5210 ng·h/mL
AUC(0-inf) [11]: 6300 ng·h/mL
clearance [12]: 27.3 mL/min/kg
MRT inf [13]: 33.6 min
Vd [14]: 0.919 L/kg
Activity [15]: 75%
Activity [16]: 62.5%
fold change (FC) (Staphylococcus aureus [17]): >32
MIC (Staphylococcus aureus [18]): > 128 µg/mL
Activity (Staphylococcus aureus [19]): inactive
Activity (Enterococcus faecalis [20]): inactive
fold change (FC) (Staphylococcus aureus [8]): 4
Activity (Staphylococcus aureus [21]): 1 log10CFU/ml
Activity (Staphylococcus aureus [22]): 0.2 log10CFU/ml
Time (Staphylococcus aureus [23]): 1 h

CN[C@H](CC(C)C)C(=O)N[C@H]1C(=O)N[C@@H](CC(N)=O)C(=O)N[C@H]2C(=O)N[C@H]3C(=O)N[C@H](C(=O)N[C@H](C(=O)O)c4cc(O)cc(O)c4-c4cc3ccc4O)[C@H](O)c3ccc(c(Cl)c3)Oc3cc2cc(c3O[C@@H]2O[C@H](CO)[C@@H](O)[C@H](O)[C@H]2O[C@H]2C[C@](C)(N)[C@H](O)[C@H](C)O2)Oc2ccc(cc2Cl)[C@H]1O [VANCOMYCIN]
MIC (Staphylococcus hominis): 1 µg/mL (≈ 0.69 µM)
MIC [24]: 1 µg/mL (≈ 0.69 µM)
MIC (Staphylococcus aureus [25]): 0.25 µg/mL (≈ 0.173 µM)
MIC (Enterococcus faecalis [26]): ≤ 0.03 µg/mL
MIC (Enterococcus faecium [27]): > 64 µg/mL

CN[C@H](CC(C)C)C(=O)N[C@H]1C(=O)N[C@@H](CC(N)=O)C(=O)N[C@H]2C(=O)N[C@H]3C(=O)N[C@H](C(=O)N[C@H](C(=O)O)c4cc(O)cc(O)c4-c4cc3ccc4O)[C@H](O[C@H]3C[C@](C)(N)[C@@H](O)[C@H](C)O3)c3ccc(c(Cl)c3)Oc3cc2cc(c3O[C@@H]2O[C@H](CO)[C@@H](O)[C@H](O)[C@H]2O[C@H]2C[C@](C)(NCc3ccc(-c4ccc(Cl)cc4)cc3)[C@@H](O)[C@H](C)O2)Oc2ccc(cc2Cl)[C@H]1O [ORITAVANCIN]
MIC [28]: 0.12 µg/mL (≈ 0.0669 µM)
MIC (Staphylococcus hominis): 0.12 µg/mL (≈ 0.0669 µM)
MIC [24]: 0.06 µg/mL (≈ 0.0335 µM)
MIC (Staphylococcus aureus [25]): 0.12 µg/mL (≈ 0.0669 µM)
MIC (Enterococcus faecalis [26]): ≤ 0.03 µg/mL
MIC (Enterococcus faecium [29]): ≤ 0.03 µg/mL

— ChEMBL document CHEMBL6127119 (J Med Chem, 2024)
